Test results from PMC10383573, “New Imadazopyrazines with CDK9 Inhibitory Activity as Anticancer and Antiviral: Synthesis, In Silico, and In Vitro Evaluation Approaches” (Pharmaceuticals, 2023).
Read-outs that look alike come from different tables or passages of the source.

Legend:
[1] = target: T1, CDK9 (Homo sapiens, UniProt P50750); set-up: purchased BPS Biosciences (San Diego, CA); conditions: compound 2 of Figure 1; ref [40]; cited from earlier work
[2] = tested on: three cancer cell lines; conditions: average of three cancer cell lines, ref [40], cited from earlier work
[3] = tested on: CDK2; conditions: new-generation CDK9 inhibitors; ref [21] (Atuveciclib), [32] (BAY-1251152); cited from earlier work
[4] = tested on: CDK5; conditions: new-generation CDK9 inhibitors; ref [21]; cited from earlier work
[5] = tested on: CDK7; conditions: new-generation CDK9 inhibitors; ref [21]; cited from earlier work
[6] = tested on: six breast cancer cell lines; conditions: read-out: Cytotoxicity IC50; average of six breast cancer cell lines; ref [38],[39]; cited from earlier work
[7] = tested on: MCF7, HCT116, and K652 cancer cells; assay: MTT cytotoxicity assay, average of the three cell lines; assay type: cell-based
Protocol: (§1) The cytotoxicity effect of the new compounds was assessed in an MTT assay against chronic myelogenous leukemia (K652), colorectal (HCT116), and breast (MCF7) cancer cell lines. […] The data is presented in Table 4 as IC50 values (in µM).
(§2) Cells were obtained from American Type Culture Collection. The cell culture DMEM was obtained from Life Technologies and Invitrogen and supplied with 10% FBS from Hyclone, 1% penicillin-streptomycin, and 10 µg/mL insulin from Sigma-Aldrich.
(§3) The MTT assay was used to monitor the in vitro cytotoxicity of our compounds. […] Then, the cells were incubated with 10% v/v reconstituted MTT at 37 °C for 3 h.

[8] = tested on: MCF7 cancer cells; assay: MTT cytotoxicity assay, MCF7; assay type: cell-based; conditions: Homo sapiens, 48 h, means (SD) of three trials
Protocol: as §1, §2
The MTT assay was used to monitor the in vitro cytotoxicity of our compounds. […] Then, the cells were incubated with 10% v/v reconstituted MTT at 37 °C for 3 h. The multiwell plates were then read using Wallac Victor2 1420 multilabel counter, and the absorbance was measured at a wavelength of 450 (ex) and 590 nm (em).

[9] = tested on: FHC normal cells; assay: MTT assay against FHC normal cells; assay type: cell-based; conditions: for SI (Selectivity Index) HCT116: FHC versus HCT116; for SI (Selectivity Index) K652: FHC versus K652; for SI (Selectivity Index) MCF7: FHC versus MCF7; for IC50: read-out: FHC IC50
Protocol: as §3

[10] = Cytotoxicity on target cells in the antiviral assay; conditions: target cells of the HCoV-229E antiviral assay
[11] = tested on: human Coronavirus (HCoV-229E); assay: 229E inhibitory assay (cytopathic inhibition effect); assay type: cell-based, human Coronavirus 229E; conditions: for IC50: read-out: IC50 229E inhibitory effect
Protocol: The antiviral effect of the compounds was examined in a human Coronavirus (HCoV-229E) inhibitory assay. The standard ribavirin (a well-established antiviral agent) was used as a positive control in this experiment.
The cytopathic inhibition effect was used to assess the antiviral and cytotoxicity of the compounds using a method described by Choi et al. (2009). Coronavirus 229E cells were used in this assay. The antiviral activity of the tested compounds was measured as a percentage using a method described by Pauwels et al.’s (1988) research. GraphPad Prism 5.0 software was used to analyze the results. Ribavirin was used as a positive standard in this assay, and DMSO was used as a negative standard.

[12] = target: T1, CDK9; assay: In vitro CDK9 kinase assay (BPS Biosciences kit)
Protocol: The in vitro kinase activity was measured using a CDK9 assay kit obtained from BPS Biosciences (San Diego, CA). The inhibitory effect of the tested compounds was assessed following the manufacturer’s instructions as indicated in the kit. GraphPad Prism 5.0 software was used to analyze the results.

[13] = tested on: HCT116 cancer cells; assay: MTT cytotoxicity assay, HCT116; assay type: cell-based; conditions: Homo sapiens, HCT-116, 48 h, means (SD) of three trials
Protocol: as §1, §2, §3

[14] = tested on: K652 cancer cells; assay: MTT cytotoxicity assay, K652; assay type: cell-based; conditions: K652, 48 h, read-out: IC50 K652
Protocol: as §1, §2, §3

[15] = MTT assay, normal noncancerous cells
[16] = HCoV-229E, cytopathic effect inhibition

T1 sequence (P50750 whole entry): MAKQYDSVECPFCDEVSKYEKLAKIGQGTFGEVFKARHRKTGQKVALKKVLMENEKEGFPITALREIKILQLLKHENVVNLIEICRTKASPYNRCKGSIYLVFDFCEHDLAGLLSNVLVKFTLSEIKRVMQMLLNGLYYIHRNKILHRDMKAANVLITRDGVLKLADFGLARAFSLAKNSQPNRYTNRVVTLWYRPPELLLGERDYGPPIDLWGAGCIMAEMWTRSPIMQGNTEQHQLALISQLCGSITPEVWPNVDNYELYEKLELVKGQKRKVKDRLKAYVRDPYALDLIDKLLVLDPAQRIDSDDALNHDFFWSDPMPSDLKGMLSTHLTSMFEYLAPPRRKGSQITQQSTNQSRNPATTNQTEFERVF
T1 sequence (O60563 whole entry, further chain): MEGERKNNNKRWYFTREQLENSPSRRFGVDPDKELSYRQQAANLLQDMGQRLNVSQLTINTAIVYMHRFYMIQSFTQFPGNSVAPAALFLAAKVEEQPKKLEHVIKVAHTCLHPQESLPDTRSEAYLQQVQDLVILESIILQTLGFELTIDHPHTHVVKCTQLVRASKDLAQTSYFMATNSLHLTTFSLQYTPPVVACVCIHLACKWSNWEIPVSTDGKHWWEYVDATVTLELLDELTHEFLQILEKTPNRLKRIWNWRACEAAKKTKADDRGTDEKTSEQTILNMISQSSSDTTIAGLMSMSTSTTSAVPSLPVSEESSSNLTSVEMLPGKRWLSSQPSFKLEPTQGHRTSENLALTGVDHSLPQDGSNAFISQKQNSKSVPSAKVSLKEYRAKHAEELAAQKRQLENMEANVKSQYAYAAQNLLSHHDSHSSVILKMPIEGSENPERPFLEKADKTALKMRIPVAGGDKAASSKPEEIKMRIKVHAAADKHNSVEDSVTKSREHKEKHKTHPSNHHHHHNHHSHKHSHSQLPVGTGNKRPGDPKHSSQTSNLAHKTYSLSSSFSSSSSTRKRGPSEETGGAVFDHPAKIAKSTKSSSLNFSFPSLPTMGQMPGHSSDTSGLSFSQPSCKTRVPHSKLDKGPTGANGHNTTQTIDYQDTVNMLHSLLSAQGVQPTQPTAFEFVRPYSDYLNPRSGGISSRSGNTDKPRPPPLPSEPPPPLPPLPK

Compound	IC50 [7] [µM]	IC50 [8] [µM]	CC50 [10] [µM]	SI selectivity index (CC50/IC50) ([11]; HCoV-229E)	IC50 [11, 16] [µM]	IC50 [12] [µM]	IC50 [13] [µM]	IC50 [14] [µM]	further results
2-phenylimidazopyrazin-3-amine [Compound 2]	–	–	–	–	–	–	–	–	CDK9 IC50 [1]: submicromolar; IC50 [1]: 0.166 µM; Cytotoxicity IC50 [2]: single-digit; IC50 ([2]; read-out: Cytotoxicity IC50): 6.66 µM
COc1cc(F)ccc1-c1ncnc(Nc2cccc(C[S@](C)(=N)=O)c2)n1 [Atuveciclib]	–	–	–	–	–	–	–	–	IC50 [3]: 1 µM; IC50 [4]: 1.6 µM; IC50 [5]: > 10 µM
COc1cc(F)ccc1-c1cc(Nc2cc(CS(C)(=N)=O)ccn2)ncc1F (stereo not shown) [BAY-1251152]	–	–	–	–	–	–	–	–	IC50 [3]: 2.92 µM
Oc1ccc(-c2nc3cnccn3c2NCCc2ccccc2)cc1O [Compound 1]	–	–	–	–	–	–	–	–	IC50 [6]: 34.8 µM
CC(C)(C)Nc1c(-c2ccoc2)nc2cnccn12 [Compound 1a, N-(Tert-butyl)-2-(furan-3-yl) imidazo[1,2-a] pyrazin-3-amine]	12.6	2.85 ± 0.03	1320	1.25	1060	0.19 ± 0.003	21.6 ± 0.29	13.4 ± 0.19	SI (Selectivity Index) HCT116 [9]: 2.7; SI (Selectivity Index) K652 [9]: 4.3; SI (Selectivity Index) MCF7 [9]: 20.5; IC50 [9, 15]: 58.6 ± 0.8 µM
c1cn2c(NC3CCCCC3)c(-c3ccoc3)nc2cn1 [Compound 1b, N-Cyclohexyl-2-(furan-3-yl) imidazo[1,2-a] pyrazin-3-amine]	144	99.2 ± 3.08	–	–	–	1.78 ± 0.029	164 ± 2.1	168 ± 5.99	–
c1ccc(CNc2c(-c3ccoc3)nc3cnccn23)cc1 [Compound 1c, N-Benzyl-2-(furan-3-yl) imidazo[1,2-a]pyrazin-3-amine]	19.5	17.4 ± 0.34	653	–	–	0.46 ± 0.008	16.4 ± 0.69	24.8 ± 0.61	IC50 [9]: 61.7 ± 0.96 µM; IC50 [11]: 516 µM
COc1ccc(Nc2c(-c3ccoc3)nc3cnccn23)cc1 [Compound 1d, 2-(Furan-3-yl)-N-(4-methoxyphenyl) imidazo[1,2-a] pyrazin-3-amine]	11.6	12.3 ± 0.17	846	1.27	405	0.18 ± 0.003	10.7 ± 0.16	11.8 ± 0.19	IC50 [9, 15]: 187 ± 2.92 µM
CC(C)(C)Nc1c(-c2ccc(O)cc2O)nc2cnccn12 [Compound 2a, 4-(3-(Tert-butylamino)imidazo[1,2-a]pyrazin-2-yl)benzene-1,3-diol]	85.2	48.26 ± 0.24	–	–	–	0.45 ± 0.008	136.4 ± 0.25	71.05 ± 0.39	–
Oc1ccc(-c2nc3cnccn3c2NC2CCCCC2)c(O)c1 [Compound 2b, 4-(3-(Cyclohexylamino)imidazo[1,2-a]pyrazin-2-yl)benzene-1,3-diol]	30.8	45.9 ± 0.67	–	–	–	0.3 ± 0.006	7.61 ± 2.12	38.8 ± 1.16	–
Oc1ccc(-c2nc3cnccn3c2NCc2ccccc2)c(O)c1 [Compound 2c, 4-(3-(Benzylamino)imidazo[1,2-a]pyrazin-2-yl)benzene-1,3-diol]	56.8	63.5 ± 0.7	–	–	–	0.65 ± 0.011	56.56 ± 0.13	50.2 ± 0.69	–
COc1ccc(Nc2c(-c3ccc(O)cc3O)nc3cnccn23)cc1 [Compound 2d, 4-(3-((4-Methoxyphenyl)amino)imidazo[1,2-a]pyrazin-2-yl)benzene-1,3-diol]	66.8	71.2 ± 0.99	–	–	–	0.89 ± 0.018	104 ± 0.98	25.3 ± 0.91	–
CN(C)c1ccc(-c2nc3cnccn3c2NC(C)(C)C)cn1 [Compound 3a, N-(Tert-butyl)-2-(6-(dimethylamino)pyridin-3-yl)imidazo[1,2-a]pyrazin-3-amine]	35.1	22.8 ± 0.33	186	0.48	393	0.3 ± 0.005	4.13 ± 0.07	78.2 ± 1.32	–
CN(C)c1ccc(-c2nc3cnccn3c2NC2CCCCC2)cn1 [Compound 3b, N-Cyclohexyl-2-(6-(dimethylamino)pyridin-3-yl)imidazo[1,2-a]pyrazin-3-amine]	10.7	16.4 ± 0.26	213	0.37	590	0.23 ± 0.005	11 ± 0.19	4.5 ± 0.08	SI (Selectivity Index) HCT116 [9]: 8.7; SI (Selectivity Index) K652 [9]: 21.3; SI (Selectivity Index) MCF7 [9]: 5.8; IC50 [9, 15]: 95.8 ± 1.72 µM
CN(C)c1ccc(-c2nc3cnccn3c2NCc2ccccc2)cn1 [Compound 3c, N-Benzyl-2-(6-(dimethylamino)pyridin-3-yl)imidazo[1,2-a]pyrazin-3-amine]	26	9.52 ± 0.15	–	–	–	0.33 ± 0.007	42.2 ± 0.68	26.4 ± 0.43	–
COc1ccc(Nc2c(-c3ccc(N(C)C)nc3)nc3cnccn23)cc1 [Compound 3d, 2-(6-(Dimethylamino)pyridin-3-yl)-N-(4-methoxyphenyl) imidazo[1,2-a]pyrazin-3-amine]	140	120 ± 2.02	–	–	–	1.66 ± 0.034	147 ± 2.75	153 ± 2.99	–
CC(C)(C)Nc1c(-c2ccnc(F)c2)nc2cnccn12 [Compound 4a, N-(Tert-butyl)-2-(2-fluoropyridin-4-yl) imidazo[1,2-a] pyrazin-3-amine]	20.7	4.38 ± 0.06	303	4.8	63.3	0.24 ± 0.004	38.2 ± 0.51	19.6 ± 0.26	–
Fc1cc(-c2nc3cnccn3c2NC2CCCCC2)ccn1 [Compound 4b, N-Cyclohexyl-2-(2-fluoropyridin-4-yl) imidazo[1,2-a] pyrazin-3-amine]	18.2	16.2 ± 0.41	174	0.29	618	1.22 ± 0.011	15.28 ± 0.13	23.2 ± 0.81	SI (Selectivity Index) HCT116 [9]: 4.8; SI (Selectivity Index) K652 [9]: 3.2; SI (Selectivity Index) MCF7 [9]: 4.5; IC50 [9, 15]: 74.3 ± 1.26 µM
Fc1cc(-c2nc3cnccn3c2NCc2ccccc2)ccn1 [Compound 4c, N-Benzyl-2-(2-fluoropyridin-4-yl) imidazo[1,2-a] pyrazin-3-amine]	92.8	67.3 ± 1.01	271	0.9	331	1.11 ± 0.02	97.4 ± 1.46	114 ± 1.7	–
COc1ccc(Nc2c(-c3ccnc(F)c3)nc3cnccn23)cc1 [Compound 4d, 2-(2-Fluoropyridin-4-yl)-N-(4-methoxyphenyl) imidazo[1,2-a]pyrazin-3-amine]	27.5	25.1 ± 0.39	–	–	–	0.57 ± 0.011	10.2 ± 0.16	47.11 ± 0.26	–
NC(=O)c1ncn([C@@H]2O[C@H](CO)[C@@H](O)[C@H]2O)n1 [Ribavirin, reference compound]	–	–	160	1.4	114	–	–	–	–
CN[C@@H]1C[C@H]2O[C@@](C)([C@@H]1OC)n1c3ccccc3c3c4c(c5c6ccccc6n2c5c31)C(=O)NC4 [Staurosporine, reference compound]	–	18.4 ± 0.4	–	–	–	–	–	–	–
